According to US20050014812A1, “Benzimidazole compounds” (Fujisawa Pharmaceutical Co., Ltd., priority 2003, published 2005):

The compounds below were run on C57BL/KsJ-db/db (db/db) mice (assay: Plasma glucose and triglyceride lowering in db/db mice (Experimental Example 1)). Details: female db/db mice, 10 mg/kg orally once daily for 7 days, fed state; lean (+m/+m) group = 100% inhibition, db/db control = 0%.
Type: in vivo
Protocol: Female C57BL/KsJ-db/db (db/db) mice and C57BL/KsJ-+m/+m (lean) mice (5 weeks old) were purchased from Jackson Laboratory, and subjected to the test after 1-2 weeks of acclimating period. Animals were maintained on standard laboratory chow and water ad libitum.
Test compound was dissolved or suspended in 0.5% methylcellulose solution and administered orally once a day at a volume of 5 mL/kg of body weight.
• 4-({1-[(3,5-dichloro-2-pyridinyl)methyl]-2,4-dimethyl-1H-benzimidazol-6-yl}oxy)butanoic acid (Example 21) • 4-{[1-(2,4-dichlorobenzyl)-2-ethoxy-4-methyl-1H-benzimidazol-6-yl]oxy}butanoic acid (Example 39) • 2-{[(1-{[3-chloro-5-(trifluoromethyl)-2-pyridinyl]methyl}-2-methyl-1H-benzimidazol-6-yl)oxy]methyl}benzoic acid (Example 75) Test Schedule
At 6 weeks of age, blood was obtained from the retro-orbital sinus by capillary pipette with heparin under feeding condition. Mice were divided into groups matched for body weight, plasma glucose and triglyceride. From 6-7 weeks of age, test compound was administered orally once daily for 7 days. On the next morning of the last administration day, body weight was measured and blood was obtained under feeding condition, and plasma glucose and triglyceride were measured.
Plasma glucose and triglyceride were determined by a mutarotase.glucose oxidase method and a glycerol-3-phosphate oxidase.3,5-dimethoxy-N-ethyl-N-(2′-hydroxy-3′-sulfopropyl)aniline natrium method, respectively, using assay kits from Wako Pure Chemical Industries, Ltd. (Osaka, Japan).
Values of plasma glucose and triglyceride for the lean group (+m/+m) were set as 100% inhibition, and for the control group (db/db) as 0% inhibition. The inhibition rate of plasma glucose and triglyceride for the test group was determined.

Row | Compound | Inhibition rate of plasma glucose | Inhibition rate of plasma triglyceride
1 | Cc1nc2ccc(OCc3ccccc3C(=O)O)cc2n1Cc1ncc(C(F)(F)F)cc1Cl [Example 75, 2-{[(1-{[3-chloro-5-(trifluoromethyl)-2-pyridinyl]methyl}-2-methyl-1H-benzimidazol-6-yl)oxy]methyl}benzoic acid] | 72% | 89%
2 | CCOc1nc2c(C)cc(OCCCC(=O)O)cc2n1Cc1ccc(Cl)cc1Cl [Example 39, 4-{[1-(2,4-dichlorobenzyl)-2-ethoxy-4-methyl-1H-benzimidazol-6-yl]oxy}butanoic acid] | 45% | 60%
3 | Cc1cc(OCCCC(=O)O)cc2c1nc(C)n2Cc1ncc(Cl)cc1Cl [Example 21, 4-({1-[(3,5-dichloro-2-pyridinyl)methyl]-2,4-dimethyl-1H-benzimidazol-6-yl}oxy)butanoic acid] | 41% | 55%
